This note sets out measurements from ChEMBL document CHEMBL1201862, “PubChem BioAssay data set” (2004).

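48-hour exposure; five concentrations; linearly interpolated endpoints. GI50 marks 50% less growth.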 Activity calls are given as the source filed them. No stated cut-off is given here; in the data, active = GI50 up to about 1.1 µM and inactive = higher.

Some test systems named below: SF-268; HOP-62; 786-0; Malme-3M; DLD-1; U-251; LOX IMVI; SNB-19; MOLT-4; HCT-116; OVCAR-5; CAKI-1; UACC-62; SK-MEL-2; EKVX; A498; CCRF-CEM; PC-3; DU-145; MDA-MB-231.
Holding throughout (test): growth of human tumour cells (NCI), 48 h

Turning to `Cc1ccc(OCC(=O)N2N=C(c3ccccc3)CC2(O)c2ccccc2)cc1` (stereo not drawn), the GI50 in the test on SF-268 is > 100 µM (inactive); in the test on HOP-62, 27.8 µM (inactive); in the test with 786-0, 16.4 µM (inactive); with Malme-3M it was > 100 µM (inactive); with DLD-1, 27.9 µM (inactive); in the test with U-251 it was 13 µM (inactive). Besides, the GI50 in the test with LOX IMVI was 99.5 µM (inactive); in the test with SNB-19, > 100 µM (inactive); in the test on MOLT-4 it was 7.89 µM (inactive); with HCT-116, > 100 µM (inactive); in the test with OVCAR-5, 18.1 µM (inactive); in the test on CAKI-1, > 100 µM (inactive). Besides, the values for the GI50 with UACC-62 and with SK-MEL-2 were 43.4 µM (inactive) and > 100 µM (inactive), respectively.
On to `O=C(NCCOC(=O)CCCCCCCCC(=O)OCCNC(=O)NC(=O)c1cn(Cc2ccccc2)c(=O)[nH]c1=O)NC(=O)c1cn(Cc2ccccc2)c(=O)[nH]c1=O`, for which the GI50 with SF-268, with HOP-62, in the test on EKVX, in the test with 786-0, in the test on DLD-1 and with U-251 was > 100 µM (inactive) in each case. For the same molecule, the GI50 with LOX IMVI, in the test with SNB-19, in the test with MOLT-4, in the test on A498, in the test on HCT-116 and with OVCAR-5 was > 100 µM (inactive) throughout. The GI50 with CAKI-1, in the test on UACC-62 and with SK-MEL-2 was > 100 µM (inactive) each time.
For `Cc1ccc(NC(=O)c2cc3cc(/N=N/c4ccc(Br)cc4)ccc3oc2=O)cc1`, the GI50 in the test on SF-268 is 28.2 µM (inactive); in the test with HOP-62, > 10 µM (inactive); in the test on 786-0 it was > 100 µM (inactive); in the test on Malme-3M, > 100 µM (inactive); with DLD-1, 46.5 µM (inactive); in the test on U-251, > 100 µM (inactive). Besides, the GI50 with LOX IMVI is > 100 µM (inactive); in the test on SNB-19 it was 25.9 µM (inactive); in the test on MOLT-4, 83 µM (inactive); with A498, 46.3 µM (inactive); in the test on HCT-116, 46.9 µM (inactive); in the test on OVCAR-5 it was > 100 µM (inactive). Moreover, the GI50 in the test on CAKI-1 was 30.5 µM (inactive); in the test with SK-MEL-2, > 100 µM (inactive).
Turning to `O=C(O)c1ccccc1C1c2ccc(Cl)cc2Oc2cc(Cl)ccc21`, the GI50 with CCRF-CEM, in the test with SF-268, with HOP-62, in the test with EKVX, in the test on 786-0 and in the test on Malme-3M was > 100 µM (inactive) throughout. In addition, the GI50 in the test with DLD-1, with U-251, in the test with LOX IMVI, with SNB-19, in the test on MOLT-4 and in the test on OVCAR-5 was > 100 µM (inactive) each time. Also, the GI50 with CAKI-1, in the test on UACC-62 and with SK-MEL-2 was > 100 µM (inactive) each time.
With `CC(=O)Nc1ccc(-c2nnc(SCC(=O)Nc3cccc(C)c3)o2)cc1`, the GI50 is 6.62 µM (inactive) in the test on CCRF-CEM; 24.5 µM (inactive) in the test with SF-268; 28.7 µM (inactive) with HOP-62; 12.8 µM (inactive) in the test with 786-0; 14.1 µM (inactive) in the test with Malme-3M; 10.5 µM (inactive) with DLD-1. Moreover, the GI50 in the test with U-251 was 13.5 µM (inactive); with LOX IMVI, 3.43 µM (inactive); in the test on MOLT-4, 4.84 µM (inactive); in the test with HCT-116, 11.8 µM (inactive); in the test on OVCAR-5, 13.4 µM (inactive); in the test with CAKI-1, 16.7 µM (inactive). In addition, the GI50 in the test on UACC-62 is 8.26 µM (inactive); with SK-MEL-2, 12.5 µM (inactive).
`CCOCN1COCN/C1=N/C#N`: the GI50 in the test on SF-268, in the test on HOP-62, in the test on EKVX, in the test on 786-0, in the test with Malme-3M and with DLD-1 was > 100 µM (inactive) throughout. Also, the GI50 in the test with U-251, in the test with SNB-19, with MOLT-4, with A498, with HCT-116 and in the test with OVCAR-5 was > 100 µM (inactive) throughout. Moreover, the GI50 in the test on CAKI-1, in the test with UACC-62 and in the test with SK-MEL-2 was > 100 µM (inactive) in each case.
Take `CCOC(=O)C1S(=O)(=O)OCCOS1(=O)=O`: the GI50 in the test on CCRF-CEM, in the test with SF-268, in the test with HOP-62, in the test on EKVX, in the test with 786-0 and with Malme-3M was > 100 µM (inactive) each time. Also, the GI50 in the test on DLD-1, in the test on LOX IMVI, in the test on SNB-19, in the test on MOLT-4, in the test on HCT-116 and in the test with CAKI-1 was > 100 µM (inactive) each time. Moreover, the GI50 in the test with UACC-62 and with SK-MEL-2 was > 100 µM (inactive) in each case.
For the molecule `COc1cccc(/C=C\c2cc(OC)c(OC)c(OC)c2)c1`, the GI50 with CCRF-CEM is 1.21 µM (inactive); in the test with SF-268 it was 3.66 µM (inactive); in the test with HOP-62 it was 1.51 µM (inactive); in the test with EKVX it was 3.49 µM (inactive); in the test on 786-0, 0.575 µM (active); in the test with Malme-3M, 0.585 µM (active). Further, the GI50 in the test on DLD-1 is 0.49 µM (active); in the test on U-251 it was 0.407 µM (active); with SNB-19, 2.18 µM (inactive); in the test on MOLT-4, 0.379 µM (active); in the test with HCT-116, 0.548 µM (active); in the test on OVCAR-5, 22.2 µM (inactive). For the same molecule, the GI50 with CAKI-1 was 0.887 µM (active); with UACC-62 it was 0.455 µM (active).
With `Cc1cc(C)c(C(=O)/C=C/c2ccccc2)c(C)c1`, the GI50 was 25.4 µM (inactive) in the test with CCRF-CEM; 20.6 µM (inactive) in the test with SF-268; 34.3 µM (inactive) in the test with HOP-62; 40.4 µM (inactive) in the test on EKVX; 27.7 µM (inactive) in the test on 786-0; 8.02 µM (inactive) in the test on Malme-3M. The GI50 was 22.6 µM (inactive) in the test on DLD-1; 15.9 µM (inactive) in the test with U-251; 28.5 µM (inactive) with SNB-19; 24.9 µM (inactive) in the test with MOLT-4; 24.8 µM (inactive) in the test on HCT-116; 36.5 µM (inactive) in the test on CAKI-1. Besides, the GI50 with UACC-62 was 31.8 µM (inactive); with SK-MEL-2, 10.4 µM (inactive).
For the molecule `O=S(=O)(F)Cc1ccccc1` [PHENYLMETHYLSULFONYLFLUORIDE], the GI50 is > 100 µM (inactive) in the test on CCRF-CEM; > 100 µM (inactive) in the test on SF-268; > 100 µM (inactive) in the test on HOP-62; > 100 µM (inactive) in the test with EKVX; > 100 µM (inactive) in the test with 786-0; 0.486 µM (active) in the test on Malme-3M. Moreover, the GI50 in the test on PC-3, in the test on U-251, in the test with LOX IMVI, in the test with DU-145, in the test on SNB-19 and in the test on MOLT-4 was > 100 µM (inactive) in each case. Moreover, the GI50 in the test on A498, with HCT-116, in the test on OVCAR-5, in the test on CAKI-1, in the test with UACC-62 and in the test with SK-MEL-2 was > 100 µM (inactive) throughout. Moreover, the GI50 with MDA-MB-231 was > 100 µM (inactive).
